Measured values: publication PMC10630888, “Nuclear ERK1/2 signaling potentiation enhances neuroprotection and cognition via Importinα1/KPNA2” (EMBO Molecular Medicine, 2023)
Where “and” joins values, the source holds several entries; their conditions need not be identical. Equal entries are not always repeated.

Legend:
[1] = RB5 brain levels by HPLC-MS/MS; format: in vivo, mouse; design: Brain levels measured with mass spectrometry: unit not given here; settings: single 20 mg/kg i.p.; for Brain levels measured with mass spectrometry: mouse brain homogenate, individual mice, 20 mg/kg
Procedure: RB5 was quantified in the mouse brain using HPLC‐MS/MS. Brain samples were homogenized with 1:4 w/v of 50% acetonitrile 5% TFA in water with a homogenizer ultra‐turrax and then centrifuged at 13,000 rpm for 10 min at 4°C. The supernatant was collected and centrifuged at 15,871 g for 2 min at 4°C. The supernatant was then collected on ice, extracted using Sep‐Pak cartridges C18, lyophilized and kept at 4°C before HPLC‐MS/MS analysis. Immediately before the analysis, samples were suspended in 100 μl of 0.1% HCOOH in water/8% acetonitrile in auto‐sampler vials.
HPLC‐MS/MS analysis was performed using a system consisting of an Agilent 1200 series HPLC system coupled with an Agilent 6410 Triple Quadruple mass spectrometer. Mass Hunter Workstation v. B.01.03 software was used for data collection and processing (Agilent Technologies, Santa Clara, California, US). The quantification of brain levels of RB5 and Scramble peptides was carried out using an internal standard curve with peptide concentrations ranging from 0.1 to 4 ng/μl. RB5 and Scramble peptides, and the internal standard were separated at room temperature by injecting 10 μl of extracted sample onto a Jupiter C4 300 A analytical column, 2 × 150 mm, 5 μm particle size (Phenomenex, CA). Gradient elution was used for chromatographic separation, using 0.1% formic acid in water as solvent A and acetonitrile as solvent B at a flow rate of 200 μl/min. The elution started with 92% of eluent A and 8% of eluent B maintained for 1 min, followed by a 4 min linear gradient to 75% of eluent B, a 1 min linear gradient to 99% of eluent B, a 2 min isocratic elution, and a 0.5 min linear gradient to 8% of eluent B, which was maintained for 9.5 min to equilibrate the column. The samples were maintained at 4°C in the autosampler.
Peptides were then detected on an Agilent 6410 QQQ mass spectrometer using the following parameters: positive ion mode, 5 kV capillary voltage, cone voltage 500 V, gas flow rate 8 l/min at 350°C, nebulizer gas pressure 40 PSI at 350°C, well time 75 msec and Q1 and Q3 set to unit resolution.

[2] = test system: pELK; experiment: Striatal pELK immunohistochemistry 1 h after single injection; format: in vivo, mouse; settings: single injection 20 mg/kg i.p., individual mice
Procedure: (§1) Immunohistochemistry was performed as described in Papale et al ([2016]). Briefly, 1 h after blocking in 5% normal goat serum and 0.1% Triton X‐100 solution, free‐floating sections were incubated overnight at 4°C with one of the following primary antibodies: anti‐phospho‐p44/42 MAP kinase (Thr202/Tyr204) (1:200, Cell Signaling Technology #9101), anti‐phospho–Elk‐1 (Ser383) (1:100, Cell Signaling #9181), anti‐phospho‐Kv4.2 (Thr607)‐R (1:100, Santa Cruz sc22254‐R), anti‐phospho‐MSK‐1 (1:100 Cell Signaling Technology #9595), anti‐phospho‐MEK1/2 (Ser218/222) (1:100, sc‐7995 Santa Cruz Biotechnology), c‐Fos (1:100, sc‐52 Santa Cruz Biotechnology), tyrosine Hydroxylase (monoclonal 1:1,000, Sigma Aldrich, Italy) and anti‐DARPP‐32 (H3) (1:100, Santa Cruz Biotechnology, #sc‐271111) overnight at 4°C. […]
(§2) For in vivo immunohistochemistry experiments, images were acquired from the dorsal striatum using a Leica DM IRB microscope under a 20× objective. The number of p‐ERK, p‐MSK‐1, p‐ELK, p‐MEK‐1, p‐VG K+, c‐Fos, and DARPP‐32 positive cells was counted in 2–3 consecutive sections per mouse, bilaterally and averaged across the sections using the ImageJ software by a blind investigator to the condition. Estimation of nigral cell loss was assessed by quantifying the number of TH‐immunopositive neurons of the SNc in 360 μm‐spaced sections for each animal.

[3] = test system: MEK-1 phosphorylation; experiment: Striatal phospho-MEK-1 immunohistochemistry 1 h after single injection; format: in vivo, mouse; settings: single injection 20 mg/kg i.p., individual mice
Procedure: as §1, §2

[4] = test system: contextual fear memory; experiment: Contextual fear conditioning, rats, intra-hippocampal infusion; format: in vivo, rat; design: unit not given here; settings: 2 mg/ml, 1.0 μl/side into dorsal hippocampus 20 min prior to conditioning, individual rats
Procedure: Lister Hooded male rats (280–350 g) were housed in pairs, in holding rooms maintained at 21°C on a reversed‐light cycle (12 h light/dark; lights on at 10:00 P.M.). All experiments were conducted in the dark period of the rats. RB5 and Scramble peptides were infused into dorsal hippocampus.
Steel double guide cannulae aimed at the dorsal hippocampus (AP ‐3.50, relative to bregma) were surgical implanted under anesthesia at least 1 week prior to behavioral training and microinfusions. Bilateral infusions with either 2 mg/ml Scramble or RB5, 20 min prior to conditioning (pH 7.0, 1.0 μl/side, rate = […]) via the chronically indwelling cannula were carried out in awake rats using a syringe pump, connected to injectors (28 gauge, projecting 1 mm beyond the guide cannulae) by polyethylene tubing.
Conditioning was performed in one of two distinct contexts. These contexts were designed to differ in a number of distinctive characteristics including size, spatial location, odor, and lighting. During the 3 min conditioning training trial, rats received a single scrambled footshock (0.5 mA for 2 s) 2 min after being placed into one of the conditioning contexts. All rats were returned to the home cages after conditioning. Retrieval tests 3 h (postretrieval short‐term memory, STM), or 2 days (long‐term memory, LTM) after recall again consisted of exposing the rat to the conditioning context for 2 min not delivering a foot shock.
(§3) For all protocols, freezing behavior served as a measure of conditioned fear to the context during the conditioning and retrieval tests.

[5] = test system: contextual fear memory; experiment: Contextual fear conditioning, Tg2576 and WT mice; format: in vivo, mouse; design: unit not given here; settings: 7 months, 20 mg/kg i.p. 1 h before CFC, test 24 h later, individual mice
Procedure: Tg2576 mice were administered with RB5 or Scramble (20 mg/kg i.p.) for either 7 days, for IHC analysis, or with a single injection (20 mg/kg i.p.), for behavioral analysis.
7‐month‐old Tg2576 mice and WT mice were treated with either Scramble or RB5 (20 mg/kg, i.p.) 1 h before CFC. Mice were individually placed in the conditioning chamber for 120 s of free exploration followed by five foot‐shocks (0.7 mA, 2‐s duration, separated by 60‐s intervals) delivered through the grid floor. Context Fear Memory was assessed 24 h later by returning mice for 5 min to the conditioning chamber and not delivering a foot shock.
as §3

| Substance | Time RB5 is detectable in brain postinjection (mass spectrometry) ([1]; mice) | Brain levels measured with mass spectrometry ([1]; 1 h) | Brain levels measured with mass spectrometry ([1]; 3 h) | Brain levels measured with mass spectrometry ([1]; 6 h) | Brain levels measured with mass spectrometry ([1]; 12 h) | pELK positive cells in striatum [2] | p-MEK-1 positive cells in striatum [3] | Freezing behavior ([4]; LTM, 2 days) | Freezing behavior ([4]; PostUS) | Freezing behavior ([4]; PreUS) | Freezing behavior ([4]; STM, 3 h) | Freezing behavior, contextual fear memory ([5]; Tg2576 mice) | Freezing behavior, contextual fear memory ([5]; WT mice) |
| --- | --- | --- | --- | --- | --- | --- | --- | --- | --- | --- | --- | --- | --- |
| GRKKRRQRRRPPQGGGGGEPRRTEGVGPGVPGEVEMVKGQPFDV [RB5, six D-amino acids, acetylated N-terminus] | up to 6 h | 92.2252 and 89.7022 and 75.321 and 38.8889 and 66.5288 | 119.5 and 39.8058 and 101.408 and 83.7545 and 96.934 | 57.0702 and 47.9263 and 56.5714 and 68.7679 and 72.8353 | 8.439 and 16.5056 and 9.465 and 6.558 | selectively activated and 980.952 and 828.571 and 933.333 and 1047.62 and 938.095 and 852.381 and 1080.95 and 1147.62 and 700 and 838.095 and 761.905 and 809.524 and 871.429 and 766.667 | did not influence the phosphorylation and 335.714 and 385.714 and 421.429 and 400 and 314.286 and 271.429 and 307.143 and 464.286 and 371.429 and 428.571 and 392.857 and 285.714 and 500 | markedly enhanced and 33.3 and 58.3 and 83.3 and 50 | markedly enhanced and 83.3 and 66.7 | 0 | markedly enhanced and 58.3 and 75 and 91.7 and 50 and 66.7 | fully prevented the memory impairment and 56.33 and 63.67 and 67 and 57.33 and 84 and 76.33 and 95.67 and 82.67 | 93.33 and 94.33 and 78 and 88.33 and 70.33 and 78.33 and 85 |
| SCR: ineffective Scramble version of RB5 containing a TAT sequence (GRKKRRQRRRPPRVGPGVPEGVGVAVFGVKEPGQTGDVGPVGE) [reference compound] | – | 6.434 and 8.14 | – | – | – | 323.81 and 423.81 and 452.381 and 228.571 and 433.333 and 633.333 and 371.429 and 404.762 and 166.667 and 219.048 and 309.524 and 280.952 and 295.238 and 195.238 and 133.333 | 385.714 and 492.857 and 471.429 and 371.429 and 478.571 and 335.714 and 407.143 and 328.571 and 342.857 and 257.143 and 442.857 and 264.286 and 542.857 | 33.3 (3×) and 58.3 and 16.7 (2×) | 16.7 (2×) and 50 (2×) and 33.3 and 0 | 0 | 33.3 (2×) and 41.7 and 16.7 and 25 and 8.3 | 28.67 and 36 and 36.67 and 25.33 and 43.67 and 29.67 and 28 | 96.67 and 87.67 and 96.33 and 88.67 and 64 and 57.67 and 82.67 |
